Measured values as given in patent US7319103B2, “Non-imidazole tertiary amines as histamine 3 receptor inhibitors for the treatment of cognitive and sleep disorders, obesity and other CNS disorders” (Athersys, Inc., priority 2004, dated 2008).

What was measured:
mouse H3 receptor = mouse H3 receptor (Mus musculus, UniProt P58406); assay: Radioligand competition binding assay, mouse H3 receptor; details: competition binding vs [3H]Nα-methylhistamine (~2 nM), membranes of cells expressing mouse H3 receptor
Procedure: (§1) Representative compounds of the present invention that were prepared by the procedures of the Examples were evaluated in binding assays against cells expressing the mouse and human H3 receptor by the following procedure.
(§2) Cells were washed with cold PBS buffer twice, scraped off the plates, and centrifuged at 1000×g for 5 minutes. Cells were resuspended in ice-cold buffer of 10 mM Tris, pH 7.4, 5 mM EDTA, protease inhibitor cocktail tablets (Roche Molecular Biochemicals) and incubated on ice for 10 minutes. The mixture was then homogenized with a dounce homogenizer or a polytron tissue grinder and centrifuged at 1000×g for 10 min at 4° C. The supernatant was centrifuged at 32,000×g for 30 min at 4° C. The membrane pellet was resuspended in a buffer of 50 mM Tris, pH 7.4 with protease inhibitor cocktail tablets and stored at −80° C. until use. Protein concentration was determined by the methods of Bradford.
(§3) Membranes were homogenized in buffer containing 50 mM Tris/HCl, 1 mM EDTA pH 7.4, and protease inhibitor cocktail tablets. Dissociation constants of radioligand (KD values) and maximum binding sites (Bmax) were determined in saturation binding experiments. Ki and IC50 were determined in competition binding assays using a fixed amount of radioligand.
(§4) Saturation binding assays were carried out in 96-well polypropylene plates in triplicate or quadruplicate. Reaction mixtures contained 100 μl of membrane suspension (˜100 μg/well), 50 μl of 4% DMSO, 50 μl of increasing amounts of [^3H]N^α-methylhistamine (final concentration of 0.01-20 nM). Nonspecific binding was defined with 10 uM clobenpropit. Competition binding assays were performed in a reaction mixture containing 100 μl of membrane suspension, 50 μl of [H]N^α-methylhistamine (final concentration of ˜2 nM), and 50 μl compounds. […] Incubations were carried out for 1.5 hours at room temperature. Reactions were terminated by rapid filtration over glass fibre GF/C filters (Perkin Elmers, MA) that had been presoaked in 0.3% PEI, using a Brandel cell harvester. The filters were washed with 500 ml of ice-cold buffer containing 50 mM Tris-HCl, pH 7.4, and were subsequently dried, impregnated with Meltilex wax scintillate (Perkin Elmers, MA) and counted with a Betaplate scintillation counter (Perkin Elmers, MA).
(§5) All data were analyzed by nonlinear least square curve fitting using Prism 4.0 software. The KD for [^3H]N^α-methylhistamine and the Bmax were derived from equation RL=RfL/(KD+L). RL is concentration of receptor-bound ligand at equilibrium, L is the free ligand concentration, Rf is the total receptor concentration. For competition binding experiments, IC50 (the concentration of compound producing 50% inhibition of specific binding) was derived from fitting to a 4-parameter logistic equation. Apparent Ki values were calculated using the Cheng-Prussof equation of Ki=IC50/(1+(L)/Kd), L is the ligand concentration. Agonist stimulation and antagonist inhibition in FLIPR were fitted to sigmoidal dose response using equation Y=Bottom+(Top-Bottom)/(1+10^((LogEC50-X))), X is the logarithm of concentration of compounds. Y is the response.

human H3 receptor = molecular target: T1, human H3 receptor (Homo sapiens, UniProt Q9Y5N1); assay: Radioligand competition binding assay, human H3 receptor (HT1080 cell membranes); details: competition binding vs [3H]Nα-methylhistamine (~2 nM), membranes of HT1080 cells expressing human H3 receptor
T1 construct: Expression of this receptor was provided by utilization of the RAGE methodology; endogenous in cells; host or cells: HT1080 (human fibrosarcoma) cells, H3 expression switched on by RAGE; co-transfected with chimeric G-protein Gqαi5
Procedure: as §1
An HT1080 cell line was produced that expresses the human H3 receptor. Expression of this receptor was provided by utilization of the RAGE methodology (Harrington et al., 2001) Nature Biotechol. 19:440-5. This cell line was transfected with the chimeric G-protein Gqαi5 (Conklin et al., 1993) Nature 363:274-6 to facilitate assessment of receptor activation through the analysis of intercellular Ca^++ levels using a fluorescence assay. The HT1080 cells expressing human histamine H3 receptor and Gqαi5 were grown in alpha-modified MEM containing 10% FBS, 3 ug/ml puromycin, 7 ug/ml blasticidin, and 3.2 uM methotrexate at 37° C. in 5% CO2/95% atmosphere.
as §2, §3, §4, §5

T1 sequence (Q9Y5N1 whole entry): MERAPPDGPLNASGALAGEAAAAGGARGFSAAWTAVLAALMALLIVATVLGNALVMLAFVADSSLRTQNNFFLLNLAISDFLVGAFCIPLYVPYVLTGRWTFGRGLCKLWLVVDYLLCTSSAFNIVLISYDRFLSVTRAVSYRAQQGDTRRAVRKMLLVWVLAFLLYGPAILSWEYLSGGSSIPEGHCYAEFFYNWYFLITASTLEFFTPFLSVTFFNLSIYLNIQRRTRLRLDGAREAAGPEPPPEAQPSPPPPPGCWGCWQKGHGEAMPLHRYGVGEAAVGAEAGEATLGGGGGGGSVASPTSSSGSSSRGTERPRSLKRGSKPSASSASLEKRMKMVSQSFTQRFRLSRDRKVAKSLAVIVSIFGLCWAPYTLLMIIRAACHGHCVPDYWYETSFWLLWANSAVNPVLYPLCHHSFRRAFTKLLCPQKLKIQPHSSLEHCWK
mouse H3 receptor, sequence (P58406 whole entry): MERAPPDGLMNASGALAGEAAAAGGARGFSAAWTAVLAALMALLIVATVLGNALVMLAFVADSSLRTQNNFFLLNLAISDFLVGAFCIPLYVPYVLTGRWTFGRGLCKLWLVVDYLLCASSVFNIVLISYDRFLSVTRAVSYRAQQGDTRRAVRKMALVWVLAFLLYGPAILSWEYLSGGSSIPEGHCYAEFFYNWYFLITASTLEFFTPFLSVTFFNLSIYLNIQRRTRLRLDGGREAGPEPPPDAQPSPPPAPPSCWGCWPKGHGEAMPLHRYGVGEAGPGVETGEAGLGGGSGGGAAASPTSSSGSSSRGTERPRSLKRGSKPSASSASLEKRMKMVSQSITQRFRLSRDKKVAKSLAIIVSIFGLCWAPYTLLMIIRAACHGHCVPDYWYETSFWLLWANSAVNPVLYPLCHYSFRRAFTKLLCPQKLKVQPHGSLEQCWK

Row | Ki (mouse H3 receptor) | Ki (human H3 receptor) | SMILES
1 | < 500 nM | < 500 nM | CN(C)[C@@H]1CCN(CCc2cc3cc(-c4c5c(nc6ccnn46)CCC5)ccc3o2)C1 [(1-{2-[5-(6,7-Dihydro-5H-1,4,8a-triaza-s-indacen-8-yl)-benzofuran-2-yl]-ethyl}-pyrrolidin-3-yl)-(R)-dimethyl-amine]
2 | < 500 nM | < 50 nM | CCN(CC)CCCOc1ccc(-c2c3c(nc4ccnn24)CCCCC3)cc1 [Diethyl-{3-[4-(6,7,8,9-tetrahydro-5H-1,4,10a-triaza-cyclohepta[f]inden-10-yl)-phenoxy]-propyl}-amine]
3 | < 500 nM | < 50 nM | CN(C)CCCOc1ccc(-c2c3c(nc4ccnn24)CCCC3)cc1 [Dimethyl-{3-[4-(5,6,7,8-tetrahydro-pyrazolo[5,1-b]quinazolin-9-yl)-phenoxy]-propyl}-amine]
4 | < 500 nM | < 5000 nM | CN(CCCOc1ccc(-c2c3c(nc4ccnn24)CCCCC3)cc1)Cc1ccco1 [Furan-2-ylmethyl-methyl-{3-[4-(6,7,8,9-tetrahydro-5H-1,4,10a-triaza-cyclohepta[f]inden-10-yl)-phenoxy]-propyl}-amine]
5 | < 500 nM | < 50 nM | CN(C)CCCOc1ccc(-c2c3c(nc4ccnn24)CCC3)cc1 [{3-[4-(6,7-Dihydro-5H-1,4,8a-triaza-s-indacen-8-yl)-phenoxy]-propyl}-dimethyl-amine]

Continued, compound first:

Row | SMILES | Ki (mouse H3 receptor) | Ki (human H3 receptor)
6 | CC1CCCN1CCCOc1ccc(-c2c3c(nc4ccnn24)CCCC3)cc1 (centres unmarked) [9-{4-[3-(2-Methyl-pyrrolidin-1-yl)-propoxy]-phenyl}-5,6,7,8-tetrahydro-pyrazolo[5,1-b]quinazoline] | < 50 nM | < 50 nM
7 | c1cc(OCCCN2CCCCC2)cc(-c2c3c(nc4ccnn24)CCCCC3)c1 [10-[3-(3-Piperidin-1-yl-propoxy)-phenyl]-6,7,8,9-tetrahydro-5H-1,4,10a-triaza-cyclohepta[f]indene] | < 5000 nM | < 500 nM
8 | c1cc(OCCCN2CCCC2)cc(-c2c3c(nc4ccnn24)CCCCC3)c1 [10-[3-(3-Pyrrolidin-1-yl-propoxy)-phenyl]-6,7,8,9-tetrahydro-5H-1,4,10a-triaza-cyclohepta[f]indene] | < 5000 nM | < 500 nM
9 | c1cc2nc3c(c(-c4ccc(OCCCN5CCCCC5)cc4)n2n1)CCCCC3 [10-[4-(3-Piperidin-1-yl-propoxy)-phenyl]-6,7,8,9-tetrahydro-5H-1,4,10a-triaza-cyclohepta[f]indene] | < 50 nM | < 50 nM
10 | C[C@@H]1CC[C@@H](C)N1CCCOc1ccc(-c2c3c(nc4ccnn24)CCCCC3)cc1 [10-{4-[3-(2,5-(R,R)-Dimethyl-pyrrolidin-1-yl)-propoxy]-phenyl}-6,7,8,9-tetrahydro-5H-1,4,10a-triaza-cyclohepta[f]indene] | < 500 nM | < 50 nM
11 | C[C@@H]1CCCN1CCCOc1ccc(-c2c3c(nc4ccnn24)CCCCC3)cc1 [10-{4-[3-(2-(R)-Methyl-pyrrolidin-1-yl)-propoxy]-phenyl}-6,7,8,9-tetrahydro-5H-1,4,10a-triaza-cyclohepta[f]indene] | < 50 nM | < 50 nM
12 | CC1CCCN1CCCOc1ccc(-c2c3c(nc4ccnn24)CCCCC3)cc1 (centres unmarked) [10-{4-[3-(2-Methyl-pyrrolidin-1-yl)-propoxy]-phenyl}-6,7,8,9-tetrahydro-5H-1,4,10a-triaza-cyclohepta[f]indene] | < 50 nM | < 50 nM
13 | c1ccc2c(-c3ccc(OCCCN4CCCC4)cc3)c3c(nc2c1)CCCCC3 [11-[4-(3-Pyrrolidin-1-yl-propoxy)-phenyl]-7,8,9,10-tetrahydro-6H-cyclohepta[b]quinoline] | < 500 nM | < 50 nM
